# Source: patent publication US11808760B1, “System and methods for in vitro structural toxicity testing” (CURI BIO, INC., priority 2019, dated 2023)
# Key:
# liver cells [1] = tested on: liver cells
# liver cells [2] = experiment: AI (CNN) structural toxicity assay, aspirin on liver cells (FIG. 6); format: cell-based
# Description: In an exemplary embodiment of the subject technology, a series of 2-class neural network training steps may be used, where a separate model is created for each drug dose compared to its control. As will be appreciated, a high level of sensitivity in detecting structural changes will be generated. As a result, aspects of the subject technology successfully capture obvious phenotypes, such as cell damage and death, as well as subtle phenotypes, such as changes to sarcomere organization or distribution of mitochondria.
# As detailed in the following sections, the input imaging data is processed and may be augmented before training deep neural networks. For each test condition, images from a well are dedicated for validation and the rest are used for training. The performance of each training may be used on the validation wells as the measure of structural change. […] One the other hand, if the achieved accuracy is high, it means that the trained neural network was able to differentiate between the drug-treated images at dose i versus the vehicle images, and the strength of the change is calculated from the distribution of class probabilities.
# A 2-class deep neural network may be trained (530) for image classification. The higher layers of the neural network may be allowed to learn the image features. […]
# iPSC-derived hepatocytes = experiment: AI (CNN) structural toxicity assay, validation z-factor versus dose (FIG. 7); format: cell-based; details: reference vehicle (DMSO), doses 0.01-30 uM, 18-layer residual network
# Description: When using multi-channel images, the channels may include brightfield images, and fluorescence images captured at different wavelengths in order to visualize different cellular structures. As one example of an experimental setup, the cells are iPSC-derived hepatocytes, the drug under investigation is tamoxifen (a drug with known liver toxicity), dose X is 0.01 uM, dose Y is 0.10 uM, dose Z is 1.00 uM, the cells are fixed and stained with phalloidin-conjugated fluorescent dyes, and the imaging is performed with an inverted fluorescence microscopy system, capturing multiple images at each individual well.
# A 2-class deep neural network may be trained (530) for image classification. The higher layers of the neural network may be allowed to learn the image features. The training may be performed with an initial learning rate of 0.01 for 20 epochs and may be repeated three times. For each training session, the final neural network may be selected from the epoch with the highest validation accuracy.
# To generate the input data to train the neural network, each image may be processed and augmented. […]
SMILES,structural damage of liver cells over time (liver cells [1]),structural changes in the cells (liver cells [2]),dose at which validation z-factors show values above -1 (start of structural changes between drug-treated cells and reference cells) (iPSC-derived hepatocytes)
CC(=O)N[C@@H](CS)C(=O)O [acetylcysteine],little damage to the cells,–,–
CC(=O)Oc1ccccc1C(=O)O [aspirin],–,"no, or minimal, structural changes",–
COc1cccc2c1C(=O)c1c(O)c3c(c(O)c1C2=O)C[C@@](O)(C(=O)CO)C[C@@H]3O[C@H]1C[C@H](N)[C@H](O)[C@H](C)O1 [doxorubicin],changes in the structural integrity of the cells,–,–
CC/C(=C(\c1ccccc1)c1ccc(OCCN(C)C)cc1)c1ccccc1 [tamoxifen],noticeable structural damage,–,5 µM
